From EP2394998A1, “3-(5-Amino-6-oxo-1,6-dihydropyridazin-3-yl)-biphenyl derivatives as PDE4 inhibitors” (Almirall, S.A., priority 2010, dated 2011)

Molecular target: recombinant PDE4 enzyme
Assay: PDE4 assay: [3H] cAMP Scintillation Proximity Assay (SPA) of phosphodiesterase activity
Type: biochemical
Conditions: yeast extract of recombinant PDE4 enzyme; 30 nM [3H] cAMP; 1 h at room temperature; pH 7.5
Method: Measurement of Phosphodiesterase Activity was done using a [3H] cAMP Scintillation Proximity Assay (SPA) (GE Healthcare). Compounds to be tested were disolved in dimethylsulfoxide (DMSO) at a stock concentration of 1 mM and serial dilutions were prepared in 50% DMSO to determine IC50s.
The reactions were conducted in 96-well plates (Corning, Ref.3604) at room temperature, in 0.1 mL of reaction buffer containing (final concentrations): 50 mM Tris-HCl, pH 7.5, 8.3 mM MgCl2, 1.7 mM EGTA, 30 nM [3H] cAMP (approximately 150000 dpm/well) with or without the inhibitors. The reaction was initiated by adding yeast extract of recombinant PDE4 enzyme.
Plates were shaken for 1 h at room temperature and the incubation was terminated by adding 50 µL (0.5 mg /well) of SPA ytrium silicate beads (RPNQ 0150; GE Healthcare) in the presence of zinc sulfate. Plates were stored overnight in the dark and read on a TRILUX microtiter plate reader (Perkin Elmer).

Structure (SMILES) | IC50 [nM]
CCn1nc(-c2cccc(-c3ccc(C(=O)O)cc3)c2)cc(Nc2cncc3ccccc23)c1=O [Example 5, 3'-[1-ethyl-5-(isoquinolin-4-ylamino)-6-oxo-1,6-dihydropyridazin-3-yl]biphenyl-4-carboxylic acid] | 0.445
CCn1nc(-c2cccc(-c3cccc(C(N)=O)c3)c2)cc(Nc2cccc3c2ccc[n+]3[O-])c1=O [Example 7, 3'-{1-ethyl-5-[(1-oxidoquinolin-5-yl)amino]-6-oxo-1,6-dihydropyridazin-3-yl}biphenyl-3-carboxamide] | 0.016
CCn1nc(-c2cccc(-c3cccc(C(=O)NCCN(C)C)c3)c2)cc(Nc2cccc3ncccc23)c1=O [Example 12, N-[2-(dimethylamino)ethyl]-3'-[1-ethyl-6-oxo-5-(quinolin-5-ylamino)-1,6-dihydropyridazin-3-yl]biphenyl-3-carboxamide] | 0.125
CCn1nc(-c2cccc(-c3cccc(C(=O)NC4CC4)c3)c2)cc(Nc2cccc3ncccc23)c1=O [Example 13, N-cyclopropyl-3'-[1-ethyl-6-oxo-5-(quinolin-5-ylamino)-1,6-dihydropyridazin-3-yl]biphenyl-3-carboxamide] | 0.037
CCn1nc(-c2cccc(-c3cccc(C(=O)NCCN4CCOCC4)c3)c2)cc(Nc2cccc3ncccc23)c1=O [Example 15, 3'-[1-ethyl-6-oxo-5-(quinolin-5-ylamino)-1,6-dihydropyridazin-3-yl]-N-(2-morpholin-4-ylethyl)biphenyl-3-carboxamide] | 0.019
CCn1nc(-c2cccc(-c3cccc(C(=O)NCCN4CCCCC4)c3)c2)cc(Nc2cccc3ncccc23)c1=O [Example 16, 3'-[1-ethyl-6-oxo-5-(quinolin-5-ylamino)-1,6-dihydropyridazin-3-yl]-N-(2-piperidin-1-ylethyl)biphenyl-3-carboxamide] | 0.045
CCn1nc(-c2cccc(-c3cccc(C(=O)NCCN4CCOCC4)c3)c2)cc(Nc2cncc3ccccc23)c1=O [Example 17, 3'-[1-ethyl-5-(isoquinolin-4-ylamino)-6-oxo-1,6-dihydropyridazin-3-yl]-N-(2-morpholin-4-ylethyl)biphenyl-3-carboxamide] | 0.043
CCn1nc(-c2cccc(-c3cccc(C(=O)NC4CCC4)c3)c2)cc(Nc2cncc3ccccc23)c1=O [Example 19, N-cyclobutyl-3'-[1-ethyl-5-(isoquinolin-4-ylamino)-6-oxo-1,6-dihydropyridazin-3-yl]biphenyl-3-carboxamide] | 0.223
CCn1nc(-c2cccc(-c3ccc(C(=O)NCCN4CCCCC4)cc3)c2)cc(Nc2cncc3ccccc23)c1=O [Example 22, 3'-[1-ethyl-5-(isoquinolin-4-ylamino)-6-oxo-1,6-dihydropyridazin-3-yl]-N-(2-piperidin-1-ylethyl)biphenyl-4-carboxamide] | 0.128
CCn1nc(-c2cccc(-c3cccc(C(=O)NC4CCC4)c3)c2)cc(Nc2cccc3ncccc23)c1=O [Example 25, N-cyclobutyl-3'-[1-ethyl-6-oxo-5-(quinolin-5-ylamino)-1,6-dihydropyridazin-3-yl]biphenyl-3-carboxamide] | 0.209
CCn1nc(-c2cccc(-c3cccc(C(=O)NC4CCCC4)c3)c2)cc(Nc2cccc3ncccc23)c1=O [Example 27, N-cyclopentyl-3'-[1-ethyl-6-oxo-5-(quinolin-5-ylamino)-1,6-dihydropyridazin-3-yl]biphenyl-3-carboxamide] | 0.016
CCn1nc(-c2cccc(-c3cccc(C(=O)NCCCCCCCN(C)CCO)c3)c2)cc(Nc2cccc3ncccc23)c1=O [Example 29, 3'-[1-ethyl-6-oxo-5-(quinolin-5-ylamino)-1,6-dihydropyridazin-3-yl]-N-{7-[(2-hydroxyethyl)(methyl)amino]heptyl}biphenyl-3-carboxamide] | 0.025
CCn1nc(-c2cccc(-c3cccc(C(=O)NC4CCN(C)CC4)c3)c2)cc(Nc2cncc3ccccc23)c1=O [Example 36, 3'-[1-ethyl-5-(isoquinolin-4-ylamino)-6-oxo-1,6-dihydropyridazin-3-yl]-N-(1-methylpiperidin-4-yl)biphenyl-3-carboxamide] | 0.172
CCn1nc(-c2cccc(-c3cccc(CCC(=O)NC4CC4)c3)c2)cc(Nc2cccc3ncccc23)c1=O [Example 38, N-cyclopropyl-3-{3'-[1-ethyl-6-oxo-5-(quinolin-5-ylamino)-1,6-dihydropyridazin-3-yl]biphenyl-3-yl}propanamide] | 0.101
CCn1nc(-c2cccc(-c3cccc(C(=O)NCC(N)=O)c3)c2)cc(Nc2cccc3ncccc23)c1=O [Example 48, N-(2-Amino-2-oxoethyl)-3'-(1-ethyl-6-oxo-5-(quinolin-5-ylamino)-1,6-dihydropyridazin-3-yl)biphenyl-3-carboxamide] | 0.041
CCn1nc(-c2cccc(-c3cccc(C(=O)NCC(=O)O)c3)c2)cc(Nc2cccc3ncccc23)c1=O [Example 49, N-({3'-[1-ethyl-6-oxo-5-(quinolin-5-ylamino)-1,6-dihydropyridazin-3-yl]biphenyl-3-yl}carbonyl)glycine] | 0.042
CCn1nc(-c2cccc(-c3ccc(CC(=O)NCCN4CCCCC4)cc3)c2)cc(Nc2cccc3ncccc23)c1=O [Example 54, 2-{3'-[1-ethyl-6-oxo-5-(quinolin-5-ylamino)-1,6-dihydropyridazin-3-yl]biphenyl-4-yl}-N-(2-piperidin-1-ylethyl)acetamide] | 0.09
CCn1nc(-c2cccc(-c3cc(C(=O)NCCCN4CCC[C@H]4COC)cc(C(=O)NC4CC4)c3)c2)cc(Nc2cccc3ncccc23)c1=O [Example 62, N-cyclopropyl-3'-[1-ethyl-6-oxo-5-(quinolin-5-ylamino)-1,6-dihydropyridazin-3-yl]-N'-{3-[(2S)-2-(methoxymethyl)pyrrolidin-1-yl]propyl}biphenyl-3,5-dicarboxamide] | 0.023
CCn1nc(-c2cccc(-c3cc(C(=O)NCCN4CCC[C@H]4COC)cc(C(=O)NC4CC4)c3)c2)cc(Nc2cccc3ncccc23)c1=O [Example 63, N-cyclopropyl-3'-[1-ethyl-6-oxo-5-(quinolin-5-ylamino)-1,6-dihydropyridazin-3-yl]-N'-{2-[(2S)-2-(methoxymethyl)pyrrolidin-1-yl]ethyl}biphenyl-3,5-dicarboxamide] | 0.037
